One assay deals with full-length human BTK (Homo sapiens (Human), UniProt Q06187). The assay is described as follows: Microfluidic off-chip mobility shift kinase assay against BTK enzyme. The note with it: 90 min at 27° C. The assay is classed as biochemical. As for the experimental part:
Example 23. Microfluidic Off-Chip Mobility Shift Assay Protocol for Potency Assessment Against BTK Enzyme
The protocol below describes microfluidic, off-chip mobility shift kinase assay to measure inherent potency of compounds against BTK enzyme.
5 uL of enzyme buffer and 7.5 uL of ATP/kinKDR peptide substrate mix were added to Matrix (#115304) 384-well, sterile, polypropylene plates (Thermo Fisher Scientific, Hudson, N.H.) with 125 nL of serially diluted compounds prepared in 100% DMSO, and incubated for 90 min. at 27° C. Following the incubation period, reactions were stopped by adding 60 uL stop buffer consisting of 100 mM HEPES, pH 7.5, 0.015% Brij-35 (30%), 0.277% Coating Reagent #3 (Caliper Life Sciences, Mountain View, Calif.), 5% DMSO. Stopped reactions were monitored at −2 PSI, −3000 V/−700 V in a LabChip 3000 plate reader from Caliper Life Sciences, a PerkinElmer Company (Hopkinton, Mass.), and the activity was measured by off-chip mobility shift assay measuring the charge/mass difference between substrate and product resulting from peptide phosphorilation. IC50 and efficacy were determined by plotting log [Inhibitor] vs. % Activity in GeneData Screener (Basel, Switzerland).

The test system of assay [1] is anti-IgM-induced expression of CD69 in human peripheral blood mononuclear cells (PBMCs). Description: PBMC IC50 assay: anti-IgM-induced CD69 expression on CD19 positive cells. The assay is classed as cell-based. The note with it: anti-IgM stimulation, CD69 expression on CD19 positive B cells. As for the experimental part:
Btk is critical for mediating the signalling of B cell antigen receptor (BCR) after anti-IgM stimulation. Based on this principle, a functional cell-based assay was established to determine the potency of compounds at inhibiting anti-IgM-induced expression of CD69, a downstream BCR signaling event, in freshly isolated human peripheral blood mononuclear cells (PBMCs). In the assay, a 90 μl PBMC suspension containing 2.5×10^5 cells was pre-treated with 10 μl of test compound at various concentrations for an hour, and then incubated overnight (approximately 16-18 hours) with 5 μl 420 μg/ml affiniPure F(ab′)2 fragment goat anti-human IgM Fc fragment per well (Dianova, Cat. No.: 109-006-129). After the incubation, the cells were washed and immunostained with an APC-labeled mouse anti-human CD69 (BD Biosciences; clone: FN50), a PerCP-Cy5.5 labelled mouse anti-human CD19 (BD Biosciences; clone: SJ25C1) and a FITC-labelled mouse anti-human CD3 (BD Biosciences; clone: HIT3a), and fixed for flow cytometric analysis of CD69 expression on CD19 positive cells (B cells). The percentage of CD69 expressing CD19 positive cells was plotted against the concentrations of test compounds to obtain a concentration response curve, and calculate an IC50 value as a measure of the potency of test compounds in the assay.

For the next assay, the system named is WB. Description: WB IC50 (no method described). The assay is classed as cell-based.

Sequence of full-length human BTK (Q06187 whole entry): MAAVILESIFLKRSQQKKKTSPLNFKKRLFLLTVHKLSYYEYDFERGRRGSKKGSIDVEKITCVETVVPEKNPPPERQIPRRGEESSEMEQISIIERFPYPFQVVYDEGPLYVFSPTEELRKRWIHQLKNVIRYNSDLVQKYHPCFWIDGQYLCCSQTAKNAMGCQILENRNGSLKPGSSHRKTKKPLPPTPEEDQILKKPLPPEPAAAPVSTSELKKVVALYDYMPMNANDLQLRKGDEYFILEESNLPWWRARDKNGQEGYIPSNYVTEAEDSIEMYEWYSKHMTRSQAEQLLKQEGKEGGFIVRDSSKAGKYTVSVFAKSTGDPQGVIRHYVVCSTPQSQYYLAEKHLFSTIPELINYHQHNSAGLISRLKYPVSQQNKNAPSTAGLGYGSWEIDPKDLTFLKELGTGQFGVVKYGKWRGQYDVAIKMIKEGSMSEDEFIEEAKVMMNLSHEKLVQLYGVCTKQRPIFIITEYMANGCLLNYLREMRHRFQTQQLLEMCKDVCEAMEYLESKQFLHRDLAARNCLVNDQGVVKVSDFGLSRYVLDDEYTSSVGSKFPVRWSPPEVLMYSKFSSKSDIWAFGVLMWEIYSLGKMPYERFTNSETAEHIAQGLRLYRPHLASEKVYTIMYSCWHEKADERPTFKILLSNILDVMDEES

`CC(C)(C)c1noc(C(=O)NC2CCCCc3cc(-c4ccnc5[nH]c(=O)[nH]c45)ccc32)n1` (single isomer, unassigned) [Compound 13, 3-tert-Butyl-[1,2,4]oxadiazole-5-carboxylic Acid [2-(2-oxo-2,3-dihydro-1H-imidazo[4,5-b]pyridin-7-yl)-6,7,8,9-tetrahydro-5H-benzocyclohepten-5-yl]-amide]: the 50% inhibitory concentration (IC50) (commonly the concentration needed to halve the response being measured) on full-length human BTK lay in the range of 10 to 100 nM.

Turning to `CC(C)(C)c1noc(C(=O)NCc2ccc(-c3ccnc4[nH]c(=O)[nH]c34)cc2C(F)(F)F)n1` [Compound 1, 3-tert-Butyl-[1,2,4]oxadiazole-5-carboxylic Acid 4-(2-oxo-2,3-dihydro-1H-imidazo[4,5-b]pyridine-7-yl)-2-trifluoromethyl-benzylamide], the IC50 was < 10 nM at full-length human BTK; 100 to 1000 nM in assay [1] (Homo sapiens, PBMC); 100 to 1000 nM in the assay with WB. For the compound `CC(C)(C)c1noc(C(=O)NCc2ccc(-c3ccnc4[nH]c(=O)[nH]c34)cc2F)n1` [Compound 2, 3-tert-Butyl-[1,2,4]oxadiazole-5-carboxylic Acid 2-fluoro-4-(2-oxo-2,3-dihydro-1H-imidazo[4,5-b]pyridine-7-yl)-benzylamide], the half-inhibitory concentration (IC50) at full-length human BTK was < 10 nM; in assay [1] (Homo sapiens, PBMC) it was 100 to 1000 nM; with WB, 100 to 1000 nM.

`CC(C)(C)c1nc(C(=O)NCc2ccc(-c3ccnc4[nH]c(=O)[nH]c34)cc2F)no1` [Compound 3, 5-tert-Butyl-[1,2,4]oxadiazole-3-carboxylic Acid 2-fluoro-4-(2-oxo-2,3-dihydro-1H-imidazo[4,5-b]pyridin-7-yl)-benzylamide]: at full-length human BTK, the concentration for half-maximal inhibition (IC50) fell in the range of 10 to 100 nM. As to `O=C(NCc1ccc(-c2ccnc3[nH]c(=O)[nH]c23)cc1F)NCC1CC2CCC1C2` (centres unmarked) [Compound 4, 1-Bicyclo[2.2.1]hept-2-ylmethyl-3-[2-fluoro-4-(2-oxo-2,3-dihydro-1H-imidazo[4,5-b]pyridin-7-yl)-benzyl]-urea], the IC50 at full-length human BTK is 10 to 100 nM; in assay [1] (Homo sapiens, PBMC), > 1000 nM. As to `CC(C)(C)C1CCN(C(=O)NCc2ccc(-c3ccnc4[nH]c(=O)[nH]c34)cc2F)C1` (centres unmarked) [Compound 5, 3-tert-Butyl-pyrrolidine-1-carboxylic Acid 2-fluoro-4-(2-oxo-2,3-dihydro-1H-imidazo[4,5-b]pyridin-7-yl)-benzylamide], the IC50 on full-length human BTK is 10 to 100 nM.

For the compound `CC(C)(C)c1nc(C(=O)NCc2ccc(-c3ccnc4[nH]c(=O)[nH]c34)cc2F)cs1` [Compound 6, 2-tert-Butyl-thiazole-4-carboxylic Acid 2-fluoro-4-(2-oxo-2,3-dihydro-1H-imidazo[4,5-b]pyridin-7-yl)-benzylamide], on full-length human BTK, the IC50 is 10 to 100 nM. Regarding `CC(C)(C)c1nnc(C(=O)NCc2ccc(-c3ccnc4[nH]c(=O)[nH]c34)cc2F)o1` [Compound 7, 5-tert-Butyl-[1,3,4]oxadiazole-2-carboxylic Acid 2-fluoro-4-(2-oxo-2,3-dihydro-1H-imidazo[4,5-b]pyridin-7-yl)-benzylamide], the concentration for half-maximal inhibition (IC50) at full-length human BTK was 100 to 1000 nM. Take `CC(C)(C)c1ccc(C(=O)NCc2ccc(-c3ccnc4[nH]c(=O)[nH]c34)cc2F)cn1` [Compound 8, 6-tert-Butyl-N-[2-fluoro-4-(2-oxo-2,3-dihydro-1H-imidazo[4,5-b]pyridin-7-yl)-benzyl]-nicotinamide]: at full-length human BTK, the IC50 was > 1000 nM.

Consider `CC(C)(O)c1ccc(C(=O)NCc2ccc(-c3ccnc4[nH]c(=O)[nH]c34)cc2F)cc1` [Compound 9, N-[2-Fluoro-4-(2-oxo-2,3-dihydro-1H-imidazo[4,5-b]pyridin-7-yl)-benzyl]-4-(1-hydroxy-1-methyl-ethyl)-benzamide], for which the IC50 at full-length human BTK was > 1000 nM. Take `CC(C)(C)c1noc(C(=O)NCc2ccc(-c3ccnc4[nH]c(=O)[nH]c34)c(CO)c2)n1` [Compound 10, 3-tert-Butyl-[1,2,4]oxadiazole-5-carboxylic Acid 3-hydroxymethyl-4-(2-oxo-2,3-dihydro-1H-imidazo[4,5-b]pyridin-7-yl)-benzylamide]: the IC50 on full-length human BTK is > 1000 nM.

Turning to `CC(C)(C)c1noc(C(=O)NC2CCCCc3cc(-c4ccnc5[nH]c(=O)[nH]c45)ccc32)n1` (centres unmarked) [Compound 11, 3-tert-Butyl-[1,2,4]oxadiazole-5-carboxylic Acid [2-(2-oxo-2,3-dihydro-1H-imidazo[4,5-b]pyridin-7-yl)-6,7,8,9-tetrahydro-5H-benzocyclohepten-5-yl]-amide], the IC50 was < 10 nM on full-length human BTK and 10 to 100 nM in assay [1]. Turning to `CC(C)(C)c1noc(C(=O)NC2CCCCc3cc(-c4ccnc5[nH]c(=O)[nH]c45)ccc32)n1` (centres unmarked) [Compound 12, 3-tert-Butyl-[1,2,4]oxadiazole-5-carboxylic Acid [2-(2-oxo-2,3-dihydro-1H-imidazo[4,5-b]pyridin-7-yl)-6,7,8,9-tetrahydro-5H-benzocyclohepten-5-yl]-amide], the IC50 on full-length human BTK is < 10 nM; in assay [1] (Homo sapiens, PBMC), < 10 nM. In turn, `CC(C)(C)c1cc(C(=O)NC2CCCCc3cc(-c4ccnc5[nH]c(=O)[nH]c45)ccc32)on1` (centres unmarked) [Compound 14, Butyl-isoxazole-5-carboxylic Acid [2-(2-oxo-2,3-dihydro-1H-imidazo[4,5-b]pyridin-7-yl)-6,7,8,9-tetrahydro-5H-benzocyclohepten-5-yl]-amide] displayed an IC50 in assay [1] (Homo sapiens, PBMC) of 100 to 1000 nM. For the compound `CC(C)(C)c1noc(C(=O)NC2CCCc3cc(-c4ccnc5[nH]c(=O)[nH]c45)ccc32)n1` (centres unmarked) [Compound 15, 3-tert-Butyl-[1,2,4]oxadiazole-5-carboxylic Acid [6-(2-oxo-2,3-dihydro-1H-imidazo[4,5-b]pyridin-7-yl)-1,2,3,4-tetrahydro-naphthalen-1-yl]-amide], the IC50 at full-length human BTK fell in the range of 10 to 100 nM. Consider `Cc1cc(-c2ccnc3[nH]c(=O)[nH]c23)c(F)cc1CNC(=O)c1nc(C(C)(C)C)no1` [Compound 16, 3-tert-Butyl-[1,2,4]oxadiazole-5-carboxylic Acid 5-fluoro-2-methyl-4-(2-oxo-2,3-dihydro-1H-imidazo[4,5-b]pyridin-7-yl)-benzylamide], for which the IC50 is < 10 nM on full-length human BTK and 100 to 1000 nM in assay [1] (Homo sapiens, PBMC).

On to `CC(C)(C)c1noc(C(=O)NCc2ccc(-c3ccnc4[nH]c(=O)[nH]c34)cc2C2CC2)n1` [Compound 17, 3-tert-Butyl-[1,2,4]oxadiazole-5-carboxylic Acid 2-cyclopropyl-4-(2-oxo-2,3-dihydro-1H-imidazo[4,5-b]pyridin-7-yl)-benzylamide], for which the IC50 on full-length human BTK was < 10 nM; in assay [1] (Homo sapiens, PBMC), 100 to 1000 nM. Take `CC1(c2noc(C(=O)NCc3ccc(-c4ccnc5[nH]c(=O)[nH]c45)cc3C(F)(F)F)n2)CC1` [Compound 18, 3-(1-Methyl-cyclopropyl)-[1,2,4]oxadiazole-5-carboxylic Acid 4-(2-oxo-2,3-dihydro-1H-imidazo[4,5-b]pyridin-7-yl)-2-trifluoromethyl-benzylamide]: the IC50 at full-length human BTK was < 10 nM; in assay [1] (Homo sapiens, PBMC) it was 10 to 100 nM; with WB, 100 to 1000 nM.

Take `CC(C)(C)c1nc(C(=O)NCc2ccc(-c3ccnc4[nH]c(=O)[nH]c34)cc2C(F)(F)F)no1` [Compound 19, 5-tert-Butyl-[1,2,4]oxadiazole-3-carboxylic Acid 4-(2-oxo-2,3-dihydro-1H-imidazo[4,5-b]pyridin-7-yl)-2-trifluoromethyl-benzylamide]: the IC50 on full-length human BTK was < 10 nM. As to `CC1(C)Cc2cc3n(c2C1)CCN(c1cc(F)cc(-c2ccnc4[nH]c(=O)[nH]c24)c1CO)C3=O` [Compound 21, 2-[5-Fluoro-2-hydroxymethyl-3-(2-oxo-2,3-dihydro-1H-imidazo[4,5-b]pyridin-7-yl)-phenyl]-7,7-dimethyl-3,4,7,8-tetrahydro-2H,6H-cyclopenta[4,5]pyrrolo[1,2-a]pyrazin-1-one], the IC50 at full-length human BTK was < 10 nM. The same measure, in the same setting: as for `CC1(C)Cc2cc3n(c2C1)CCN(c1cc(F)cc(-c2ccnc4[nH]c(=O)[nH]c24)c1)C3=O` [Compound 22, 2-[3-Fluoro-5-(2-oxo-2,3-dihydro-1H-imidazo[4,5-b]pyridin-7-yl)-phenyl]-7,7-dimethyl-3,4,7,8-tetrahydro-2H,6H-cyclopenta[4,5]pyrrolo[1,2-a]pyrazin-1-one], the figure is 10 to 100 nM. With `Cc1cc(-c2ccnc3[nH]c(=O)[nH]c23)ccc1CNC(=O)c1nc(C(C)(C)C)no1` [Compound 23, 3-tert-Butyl-[1,2,4]oxadiazole-5-carboxylic Acid 2-methyl-4-(2-oxo-2,3-dihydro-1H-imidazo[4,5-b]pyridin-7-yl)-benzylamide], the IC50 at full-length human BTK was < 10 nM; in assay [1] (Homo sapiens, PBMC), 10 to 100 nM; with WB, 10 to 100 nM.

The record behind these values is patent US10266528B2, “2-oxo-imidazopyridines as reversible BTK inhibitors and uses thereof” (Merck Patent GmbH, priority 2016, dated 2019).
